From patent publication US10710994B2, “Oxadiazole transient receptor potential channel inhibitors” (Genentech, Inc., priority 2018, dated 2020)
Read-outs that look alike come from different tables or passages of the source.

Target: human TRPA1 channel (Homo sapiens (Human), UniProt O75762)
Assay: hTRPA1 CHO Ca2+ FLIPR Tetra assay: block of cinnamaldehyde induced calcium influx
Assay type: cell-based
Details: CHO cells expressing TRPA1, Hill coefficient fixed to 1.5
Procedure: CHO cells expressing TRPA1 were plated into 384-well plates, incubated overnight at 37° C., and loaded with BD calcium indicator dye for 1 hr at 37° C. followed by 15 minutes at room temperature. The assay buffer was Hank's Balanced Salt Solution (HBSS) containing 20 mM HEPES (pH readjusted to 7.4) along with 0.02% BSA.
Following dye load and plate cool down, compounds were added to the cells using FLIPR Tetra. Plates were then incubated with compounds for 10 minutes or 90 minutes at room temperature prior to adding agonist. Following this incubation, about an EC80 concentration of cinnamaldehyde […] was added to active the channels and block of cinnamaldehyde induced calcium influx was measured.
Fixing the Hill coefficient will generally reduce variability of the IC50 determination. The IC50 results were individually examined to make sure the MIN and MAX points were set correctly prior to validation of the results.

[1] = read-out: hTRPA1 IC50 10 min, 10 minutes incubation with compound before cinnamaldehyde (about EC80)
[2] = read-out: hTRPA1 IC50 90 min, 90 minutes incubation with compound before cinnamaldehyde (about EC80)
[3] = hTRPA1 IC50 10 min, 10 minutes incubation with compound before cinnamaldehyde (about EC80)
[4] = hTRPA1 IC50 90 min, 90 minutes incubation with compound before cinnamaldehyde (about EC80)

Sequence of human TRPA1 channel (O75762 whole entry): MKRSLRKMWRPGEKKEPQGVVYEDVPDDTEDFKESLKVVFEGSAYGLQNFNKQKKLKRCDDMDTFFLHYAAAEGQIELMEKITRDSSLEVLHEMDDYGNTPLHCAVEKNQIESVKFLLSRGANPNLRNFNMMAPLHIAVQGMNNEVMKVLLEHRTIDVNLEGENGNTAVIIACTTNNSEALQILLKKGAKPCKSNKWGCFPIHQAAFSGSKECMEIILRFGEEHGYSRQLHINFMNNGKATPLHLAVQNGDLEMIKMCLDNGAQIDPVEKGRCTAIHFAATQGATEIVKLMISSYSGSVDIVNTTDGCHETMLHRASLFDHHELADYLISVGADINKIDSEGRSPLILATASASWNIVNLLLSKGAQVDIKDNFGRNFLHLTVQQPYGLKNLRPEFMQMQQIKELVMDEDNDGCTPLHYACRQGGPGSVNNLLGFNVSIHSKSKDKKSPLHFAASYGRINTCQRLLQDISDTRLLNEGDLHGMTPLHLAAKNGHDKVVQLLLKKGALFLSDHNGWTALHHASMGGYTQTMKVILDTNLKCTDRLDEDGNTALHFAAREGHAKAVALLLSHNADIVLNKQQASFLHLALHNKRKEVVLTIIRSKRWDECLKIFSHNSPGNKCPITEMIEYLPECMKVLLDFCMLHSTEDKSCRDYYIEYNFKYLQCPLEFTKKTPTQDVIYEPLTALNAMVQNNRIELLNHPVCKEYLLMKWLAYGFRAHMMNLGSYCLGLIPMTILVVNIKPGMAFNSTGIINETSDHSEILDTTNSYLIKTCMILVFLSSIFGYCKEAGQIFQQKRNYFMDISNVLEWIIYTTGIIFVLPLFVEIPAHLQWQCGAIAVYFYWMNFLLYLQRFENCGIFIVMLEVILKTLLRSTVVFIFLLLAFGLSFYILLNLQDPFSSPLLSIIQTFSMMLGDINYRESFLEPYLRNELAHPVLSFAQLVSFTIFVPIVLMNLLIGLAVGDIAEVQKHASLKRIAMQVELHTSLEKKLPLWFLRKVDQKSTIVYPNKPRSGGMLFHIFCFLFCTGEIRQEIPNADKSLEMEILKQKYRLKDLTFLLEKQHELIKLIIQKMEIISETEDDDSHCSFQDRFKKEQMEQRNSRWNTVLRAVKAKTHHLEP

| SMILES | IC50 [1] [nM] | IC50 [2] [nM] | IC50 [3] [nM] | IC50 [4] [nM] |
| --- | --- | --- | --- | --- |
| Cn1cnc2nnn(Cc3nc([C@@H]4CO[C@@H](c5ccc(Cl)cc5)C4)no3)c(=O)c21 [Example 141, 3-((3-((3R,5R)-5-(4-chlorophenyl)tetrahydro-furan-3-yl)-1,2,4-oxadiazol-5-yl)methyl)-5-methyl-3,5-dihydro-4H-imidazo[4,5-d][1,2,3] triazin-4-one] | 30.9 | 11 |  |  |
| Cn1c(=O)[nH]c2ncn(Cc3nc([C@@H]4CO[C@@H](c5ccc(Cl)cc5)C4)no3)c(=O)c21 [Example 9, 1-((3-((3R, 5R)-5-(4-chlorophenyl)-tetrahydrofuran-3-yl)-1,2,4-oxadiazol-5-yl)methyl)-7-methyl-1H-purine-6,8(7H,9H)-dione] | 40.4 | 11 |  |  |
| Cc1cnn2ncn(Cc3nc([C@@H]4CO[C@@H](c5ccc(Cl)cn5)C4)no3)c(=O)c12 [Example 148, 3-((3-((3R,5R)-5-(5-chloropyridin-2-yl)tetrahydrofuran-3-yl)-1,2,4-oxadiazol-5-yl)methyl)-5-methylpyrazolo[5,1-f] [1,2,4]triazin-4(3H)-one] | 21.3 | 14 |  |  |
| Cc1ccnc2nc(N)n(Cc3nc([C@@H]4CO[C@@H](c5ccc(Cl)cc5)C4)no3)c(=O)c12 [Example 135, 2-amino-3-((3-((3R,5R)-5-(4-chlorophenyl)tetrahydro-furan-3-yl)-1,2,4-oxadiazol-5-yl)methyl)-5-methylpyrido[2,3-d] pyrimidin-4(3H)-one] | 10.4 | 1.5 |  |  |
| COc1ccc([C@H]2C[C@H](c3noc(Cn4cnc5ncn(C)c5c4=O)n3)CO2)cc1 [Example 65, 1-((3-((3R,5R)-5-(4-methoxyphenyl)tetrahydrofuran-3-yl)-1,2,4-oxadiazol-5-yl)methyl)-7-methyl-1,7-dihydro-6H-purin-6-one] |  |  | 137 | 67 |
| Cc1ccnc2ncn(Cc3nc([C@@H]4CO[C@@H](c5ccc(Cl)cc5)C4)no3)c(=O)c12 [Example 54, 3-((3-((3R,5R)-5-(4-chlorophenyl)tetrahydro-furan-3-yl)-1,2,4-oxadiazol-5-yl)methyl)-5-methylpyrido[2,3-d] pyrimidin-4(3H)-one] | 2.14 | 0.73 |  |  |
| Cn1cnc2ncn(Cc3nc([C@@H]4CO[C@@H](c5ccc6ncsc6c5)C4)no3)c(=O)c21 [Example 53, 1-((3-((3R,5R)-5-(benzo[d]thiazol-6-yl)tetrahydrofuran-3-yl)-1,2,4-oxadiazol-5-yl)methyl)-7-methyl-1,7-dihydro-6H-purin-6-one] | 146 | 88 |  |  |
| Cn1cnc2[nH]c(=O)n(Cc3nc([C@@H]4CO[C@@H](c5ccc(Cl)cc5)C4)no3)c(=O)c21 [Example 7, 1-((3-((3R, 5R)-5-(4-chlorophenyl)-tetrahydrofuran-3-yl)-1,2,4-oxadiazol-5-yl)methyl)-7-methyl-1H-purine-2,6(3H,7H)-dione] | 313 | 23 |  |  |
| Cc1nc(Br)n2ncn(Cc3nc([C@@H]4CO[C@@H](c5ccc(Cl)cc5)C4)no3)c(=O)c12 (racemic) [Example 107, 7-bromo-5-methyl-3-[[3-[rac-(3R,5R)-5-(4-chlorophenyl)tetrahydro-furan-3-yl]-1,2,4-oxadiazol-5-yl]methyl] imidazo[5,1-f][1,2,4] triazin-4-one] |  |  | 0.8 | 0.3 |

Results, then the compound that gave them:

| IC50 [1] [nM] | IC50 [2] [nM] | IC50 [3] [nM] | IC50 [4] [nM] | SMILES |
| --- | --- | --- | --- | --- |
|  |  | 6.4 | 4 | O=c1c2cccc(=O)n2ccn1Cc1nc([C@@H]2CO[C@@H](c3ccc(Cl)cc3)C2)no1 (racemic) [Example 98, 2-[[3-[rac-(3R,5R)-5-(4-chlorophenyl)tetrahydro-furan-3-yl]-1,2,4-oxadiazol-5-yl]methyl] pyrido[1,2-a]pyrazine-1,6-dione] |
| 4.16 | 3 |  |  | Cn1cnc2ncn(Cc3nc([C@@H]4CO[C@@H](c5ccc(Cl)cc5)C4)no3)c(=S)c21 [Example 59, 1-((3-((3R,5R)-5-(4-chlorophenyl)tetrahydro-furan-3-yl)-1,2,4-oxadiazol-5-yl)methyl)-7-methyl-1,7-dihydro-6H-purine-6-thione] |
| 127 | 59 |  |  | Cn1cnc2ncn(Cc3nc([C@@H]4CO[C@@H](c5ccccc5F)C4)no3)c(=O)c21 [Example 15, 1-((3-((3R,5R)-5-(2-fluorophenyl)tetrahydro-furan-3-yl)-1,2,4-oxadiazol-5-yl)methyl)-7-methyl-1,7-dihydro-6H-purin-6-one] |
|  |  |  | 330 | Cc1nc(N2CCNCC2)n2ncn(Cc3nc([C@@H]4CO[C@@H](c5ccc(Cl)cc5)C4)no3)c(=O)c12 (racemic) [Example 91, formic acid; 5-methyl-7-piperazin-1-yl-3-[[3-[rac-(3R,5R)-5-(4-chlorophenyl)tetrahydro-furan-3-yl]-1,2,4-oxadiazol-5-yl]methyl] imidazo[5,1-f][1,2,4]triazin-4-one] |
|  |  | 16.1 | 2.1 | Cn1nnc2nc(N)n(Cc3nc([C@@H]4CO[C@@H](c5ccc(Cl)cc5)C4)no3)c(=O)c21 (racemic) [Example 156, 5-amino-1-methyl-6-[[3-[rac-(3R,5R)-5-(4-chlorophenyl)tetrahydro-furan-3-yl]-1,2,4-oxadiazol-5-yl]methyl]triazolo[4,5-d]pyrimidin-7-one] |
|  |  |  | 33 | Cc1nn(C)c2ncn(Cc3nc([C@@H]4CO[C@@H](c5ccc(Cl)cc5)C4)no3)c(=O)c12 (racemic) [Example 96, 1,3-dimethyl-5-[[3-[rac-(3R,5R)-5-(4-chlorophenyl)tetrahydro-furan-3-yl]-1,2,4-oxadiazol-5-yl]methyl] pyrazolo[3,4-d]pyrimidin-4-one] |
| 1560 | 930 |  |  | Cn1cnc2ncn(Cc3nc([C@@H]4CO[C@@H](c5ccc(S(F)(F)(F)(F)F)cc5)C4)no3)c(=O)c21 [Example 86, 7-methyl-1-((3-((3R,5R)-5-(4-(pentafluoro-l6-sulfanyl)phenyl)tetrahydro-furan-3-yl)-1,2,4-oxadiazol-5-yl)methyl)-1,7-dihydro-6H-purin-6-one] |
| 15.1 | 5.6 |  |  | Nc1nc2ncn(Cc3nc([C@@H]4CO[C@@H](c5ccc(Cl)cc5)C4)no3)c(=O)c2s1 [Example 129, 2-amino-6-((3-((3R,5R)-5-(4-chlorophenyl)tetrahydrofuran-3-yl)-1,2,4-oxadiazol-5-yl)methyl)thiazolo[4,5-d] pyrimidin-7(6H)-one] |
|  | 66 |  |  | NC(=O)c1ccc2c(=O)n(Cc3nc([C@@H]4CO[C@@H](c5ccc(Cl)cc5)C4)no3)cnc2n1 [Example 77, 3-((3-((3R,5R)-5-(4-chlorophenyl)tetrahydro-furan-3-yl)-1,2,4-oxadiazol-5-yl)methyl)-4-oxo-3,4-dihydropyrido[2,3-d] pyrimidine-7-carboxamide] |
| 18.7 | 2.9 |  |  | Nc1nc2ncccc2c(=O)n1Cc1nc([C@@H]2CO[C@@H](c3ccc(F)cc3)C2)no1 [Example 89, 2-amino-3-((3-((3R,5R)-5-(4-fluorophenyl)tetrahydrofuran-3-yl)-1,2,4-oxadiazol-5-yl)methyl) pyrido[2,3-d]pyrimidin-4(3H)-one] |
